Results as given in patent publication US7846959B2, “Raf modulators and methods of use” (Exelixis, Inc., priority 2004, dated 2010).
Where two headings read alike, the source gives them in different places.

Columns and labels:
c-Raf = c-Raf (Homo sapiens, UniProt P04049); experiment: Luciferase-coupled chemiluminescence kinase assay (ATP consumption), c-Raf; assay type: biochemical
Procedure: (§1) Tyrosine kinase activity is determined by 1) measurement of kinase-dependent ATP consumption by in the presence of a generic substrate such as […], tyrosine (pEY), by luciferase/luciferin-mediated chemiluminescence or; 2) incorporation of radioactive phosphate derived from ^33P-ATP into a generic substrate which has been adsorbed onto the well surface of polystyrene microtiter plates. Phosphorylated substrate products are quantified by scintillation spectrometry.
(§2) Luciferase-Coupled Chemiluminescence Assay Protocol
(§3) Kinase activity is measured as the percent of ATP consumed following the kinase reaction using luciferase-luciferin-coupled chemiluminescence. Reactions were conducted in 384-well white, medium binding microtiter plates (Greiner). Kinase reactions were initiated by combining test compounds, ATP and kinase in a 20 uL volume. The reaction mixture was incubated at ambient temperature for 3 hrs. For c-Raf, B-Raf, and B-RafV599E, […] of the enzyme was pre-incubated with compound in 20 mM Tris pH 7.5, 10 mM MgCl2, 0.03% TX-100, and 1 mM DTT for 30 minutes at room temperature. Following the kinase reaction, a 20 μL aliquot of luciferase-luciferin mix was added and the chemiluminescence signal measured using a Victor^2 plate reader (Perkin Elmer). The luciferase-luciferin mix contained 50 mM HEPES, pH 7.8, 67 mM oxalic acid (pH 7.8), 5 (or 50) mM DTT, 0.4% Triton X-100, 0.25 mg/mL coenzyme A, 63 μM AMP, 28 μg/mL luciferin and 40,000 units/mL luciferase. Total ATP consumption was limited to 25-60% and the IC50 values correlate well with those determined by radiometric assays.

B-Raf = B-Raf (Homo sapiens, UniProt P15056); experiment: Luciferase-coupled chemiluminescence kinase assay (ATP consumption), B-Raf; assay type: biochemical
Sequence of B-Raf (P15056 whole entry): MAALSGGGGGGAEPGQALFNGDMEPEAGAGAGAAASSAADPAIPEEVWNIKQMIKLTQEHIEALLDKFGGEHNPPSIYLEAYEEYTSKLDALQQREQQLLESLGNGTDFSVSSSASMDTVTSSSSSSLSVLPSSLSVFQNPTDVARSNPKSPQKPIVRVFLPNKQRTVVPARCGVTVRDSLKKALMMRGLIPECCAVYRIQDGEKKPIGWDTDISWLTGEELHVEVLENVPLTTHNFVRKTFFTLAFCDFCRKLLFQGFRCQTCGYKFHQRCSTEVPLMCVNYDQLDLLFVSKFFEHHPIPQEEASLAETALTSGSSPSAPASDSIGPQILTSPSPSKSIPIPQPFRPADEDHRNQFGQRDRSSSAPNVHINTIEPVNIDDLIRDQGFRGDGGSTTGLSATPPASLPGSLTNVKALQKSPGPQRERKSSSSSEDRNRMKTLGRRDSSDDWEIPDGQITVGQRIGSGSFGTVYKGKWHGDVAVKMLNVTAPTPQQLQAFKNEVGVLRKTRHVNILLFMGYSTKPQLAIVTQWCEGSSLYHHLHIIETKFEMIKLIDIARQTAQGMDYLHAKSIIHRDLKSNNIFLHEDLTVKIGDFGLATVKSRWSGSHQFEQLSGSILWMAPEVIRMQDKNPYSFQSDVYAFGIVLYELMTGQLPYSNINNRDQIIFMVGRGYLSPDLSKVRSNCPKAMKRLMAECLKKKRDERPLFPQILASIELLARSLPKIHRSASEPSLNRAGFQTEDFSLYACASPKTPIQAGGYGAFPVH
Procedure: as §1, §2, §3

[1] = read-out: bRaf (inhibition indicated as IC50)

Sequence of c-Raf (P04049 whole entry): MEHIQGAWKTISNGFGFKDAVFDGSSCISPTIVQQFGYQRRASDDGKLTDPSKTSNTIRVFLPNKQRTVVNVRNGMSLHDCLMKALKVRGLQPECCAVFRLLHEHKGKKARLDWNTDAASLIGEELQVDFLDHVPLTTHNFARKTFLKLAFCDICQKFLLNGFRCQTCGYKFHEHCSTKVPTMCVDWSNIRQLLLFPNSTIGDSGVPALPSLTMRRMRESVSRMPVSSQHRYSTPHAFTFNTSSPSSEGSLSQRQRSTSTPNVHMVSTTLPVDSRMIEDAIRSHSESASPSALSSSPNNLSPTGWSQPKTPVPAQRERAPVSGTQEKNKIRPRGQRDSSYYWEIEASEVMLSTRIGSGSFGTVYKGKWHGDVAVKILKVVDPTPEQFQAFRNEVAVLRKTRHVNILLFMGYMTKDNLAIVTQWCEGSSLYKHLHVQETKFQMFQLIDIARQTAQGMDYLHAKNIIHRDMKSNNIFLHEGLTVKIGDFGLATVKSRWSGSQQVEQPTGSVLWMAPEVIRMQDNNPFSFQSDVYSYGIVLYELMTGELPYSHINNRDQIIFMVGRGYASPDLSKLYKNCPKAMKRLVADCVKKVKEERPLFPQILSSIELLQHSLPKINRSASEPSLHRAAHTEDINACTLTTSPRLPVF

IC50 (c-Raf; read-out: cRaf-1 IC50) [nM]	IC50 (B-Raf; read-out: bRaf IC50) [nM]	IC50 (c-Raf; read-out: cRaf-1 (inhibition indicated as IC50)) [nM]	IC50 (B-Raf; [1]) [nM]	Compound
1000 to 10000	1000 to 10000			O=C1COc2ccc(C3(O)c4ccccc4C(=O)N3c3cc(F)cc(F)c3)cc2N1 (stereo not drawn) [Entry 68, 6-[2-(3,5-difluorophenyl)-1-hydroxy-3-oxo-2,3-dihydro-1H-isoindol-1-yl]-2H-1,4-benzoxazin-3(4H)-one]
1000 to 10000	1000 to 10000			O=C1COc2ccc(C3(O)c4ccccc4C(=O)N3c3cccc(CO)c3)cc2N1 (stereo not drawn) [Entry 82, 6-{1-hydroxy-2-[3-(hydroxymethyl)phenyl]-3-oxo-2,3-dihydro-1H-isoindol-1-yl}-2H-1,4-benzoxazin-3(4H)-one]
< 100	< 100			COC(=O)Nc1nc2cc(C3(O)c4ccccc4C(=O)N3c3cc(F)cc(Cl)c3)ccc2[nH]1 (stereo not drawn) [Entry 239, methyl {5-[2-(3-chloro-5-fluorophenyl)-1-hydroxy-3-oxo-2,3-dihydro-1H-isoindol-1-yl]-1H-benzimidazol-2-yl}carbamate]
< 100	< 100			C[C@H](c1ccccc1)N1C(=O)c2ccccc2C1(O)c1ccc2[nH]c(NC(=O)OCc3ccccc3)nc2c1 (stereo partly drawn) [Entry 150, phenylmethyl (5-{1-hydroxy-3-oxo-2-[(1R)-1-phenylethyl]-2,3-dihydro-1H-isoindol-1-yl}-1H-benzimidazol-2-yl)carbamate]
< 100	< 100			COC(=O)Nc1nc2cc(C3(O)c4ccccc4C(=O)N3c3ccc(F)c(Br)c3)ccc2[nH]1 (stereo not drawn) [Entry 214, methyl {5-[2-(3-bromo-4-fluorophenyl)-1-hydroxy-3-oxo-2,3-dihydro-1H-isoindol-1-yl]-1H-benzimidazol-2-yl}carbamate]
100 to 1000	< 100			COC(=O)Nc1nc2cc(C3(O)c4ccccc4C(=O)N3c3ccccc3OC(F)(F)F)ccc2[nH]1 (stereo not drawn) [Entry 183, methyl [5-(1-hydroxy-3-oxo-2-{2-[(trifluoromethyl)oxy]phenyl}-2,3-dihydro-1H-isoindol-1-yl)-1H-benzimidazol-2-yl]carbamate]
≥ 10000	≥ 10000			O=C1COc2ccc(C(=O)c3ccccc3-c3nc(-c4ccccc4)no3)cc2N1 [Entry 48, 6-{[2-(3-phenyl-1,2,4-oxadiazol-5-yl)phenyl]carbonyl}-2H-1,4-benzoxazin-3(4H)-one]
< 100	< 100			COC(=O)Nc1nc2cc(C3(O)c4ccccc4C(=O)N3c3ccccc3F)ccc2[nH]1 (stereo not drawn) [Entry 142, methyl {5-[2-(2-fluorophenyl)-1-hydroxy-3-oxo-2,3-dihydro-1H-isoindol-1-yl]-1H-benzimidazol-2-yl}carbamate]
< 100	< 100			COC(=O)Nc1nc2cc(C3(O)c4ccccc4C(=O)N3c3cccc(N(C)c4ccccc4)c3)ccc2[nH]1 (stereo not drawn) [Entry 267, methyl [5-(1-hydroxy-2-{3-[methyl(phenyl)amino]phenyl}-3-oxo-2,3-dihydro-1H-isoindol-1-yl)-1H-benzimidazol-2-yl]carbamate]
		< 100	< 100	O=C(Nc1nc2ccc(C3(O)c4ccccc4C(=O)N3c3cccc(Cl)c3F)cc2[nH]1)OC1CCC1 (stereo not drawn) [Entry 330, cyclobutyl {6-[2-(3-chloro-2-fluorophenyl)-1-hydroxy-3-oxo-2,3-dihydro-1H-isoindol-1-yl]-1H-benzimidazol-2-yl}carbamate]
< 100	< 100			C#CCCC(=O)Nc1nc2ccc(C3(O)c4ccccc4C(=O)N3Cc3ccccc3)cc2[nH]1 (stereo not drawn) [Entry 253, N-{6-[1-hydroxy-3-oxo-2-(phenylmethyl)-2,3-dihydro-1H-isoindol-1-yl]-1H-benzimidazol-2-yl}pent-4-ynamide]
1000 to 10000	1000 to 10000			COC(=O)Nc1nc2cc(C3(O)c4ccccc4C(=O)N3CCc3ccccc3)ccc2[nH]1 (stereo not drawn) [Entry 99, methyl {5-[1-hydroxy-3-oxo-2-(2-phenylethyl)-2,3-dihydro-1H-isoindol-1-yl]-1H-benzimidazol-2-yl}carbamate]
			< 100	COC(=O)Nc1nc2ccc(C(=O)c3ccccc3C(=O)Nc3cccc(I)c3)cc2[nH]1 [Entry 403, methyl {6-[(2-{[(3-iodophenyl)amino]carbonyl}phenyl)carbonyl]-1H-benzimidazol-2-yl}carbamate]
			< 100	COC(=O)Nc1nc2ccc(C(=O)c3ccccc3C(=O)Nc3cccc(C(C)C)c3)cc2[nH]1 [Entry 404, methyl (6-{[2-({[3-(1-methylethyl)phenyl]amino}carbonyl)phenyl]carbonyl}-1H-benzimidazol-2-yl)carbamate]
			< 100	COC(=O)Nc1nc2ccc(C(=O)c3ccccc3C(=O)Nc3cc(Br)ccc3C)cc2[nH]1 [Entry 416, methyl {6-[(2-{[(5-bromo-2-methylphenyl)amino]carbonyl}phenyl)carbonyl]-1H-benzimidazol-2-yl}carbamate]
			< 100	COC(=O)Nc1nc2ccc(C(=O)c3ccccc3C(=O)NCc3ccsc3)cc2[nH]1 [Entry 405, methyl {6-[(2-{[(3-thienylmethyl)amino]carbonyl}phenyl)carbonyl]-1H-benzimidazol-2-yl}carbamate]
			< 100	COC(=O)Nc1nc2ccc(C(=O)c3ccccc3C(=O)Nc3cccc(C)c3)cc2[nH]1 [Entry 393, methyl {6-[(2-{[(3-methylphenyl)amino]carbonyl}phenyl)carbonyl]-1H-benzimidazol-2-yl}carbamate]
			< 100	COC(=O)Nc1nc2ccc(C(=O)c3ccccc3C(=O)Nc3cc(Br)ccc3F)cc2[nH]1 [Entry 409, methyl {6-[(2-{[(5-bromo-2-fluorophenyl)amino]carbonyl}phenyl)carbonyl]-1H-benzimidazol-2-yl}carbamate]
			< 100	COC(=O)Nc1nc2ccc(C(=O)c3ccccc3C(=O)Nc3cccc(F)c3)cc2[nH]1 [Entry 396, methyl {6-[(2-{[(3-fluorophenyl)amino]carbonyl}phenyl)carbonyl]-1H-benzimidazol-2-yl}carbamate]
			< 100	COC(=O)Nc1nc2ccc(C(=O)c3ccccc3C(=O)Nc3cc(Cl)ccc3C)cc2[nH]1 [Entry 415, methyl {6-[(2-{[(5-chloro-2-methylphenyl)amino]carbonyl}phenyl)carbonyl]-1H-benzimidazol-2-yl}carbamate]
			< 100	COC(=O)Nc1nc2ccc(C(=O)c3ccccc3C(=O)Nc3cccc(I)c3F)cc2[nH]1 [Entry 417, methyl {6-[(2-{[(2-fluoro-3-iodophenyl)amino]carbonyl}phenyl)carbonyl]-1H-benzimidazol-2-yl}carbamate]
			< 100	CCc1cccc(NC(=O)c2ccccc2C(=O)c2ccc3nc(NC(=O)OC)[nH]c3c2)c1 [Entry 399, methyl {6-[(2-{[(3-ethylphenyl)amino]carbonyl}phenyl)carbonyl]-1H-benzimidazol-2-yl}carbamate]
			< 100	C#Cc1cccc(NC(=O)c2ccccc2C(=O)c2ccc3nc(NC(=O)OC)[nH]c3c2)c1 [Entry 400, methyl {6-[(2-{[(3-ethynylphenyl)amino]carbonyl}phenyl)carbonyl]-1H-benzimidazol-2-yl}carbamate]
			< 100	COC(=O)Nc1nc2ccc(C(=O)c3ccccc3C(=O)Nc3cccc(Br)c3F)cc2[nH]1 [Entry 412, methyl {6-[(2-{[(3-bromo-2-fluorophenyl)amino]carbonyl}phenyl)carbonyl]-1H-benzimidazol-2-yl}carbamate]
